Experimental data taken from the NIST ThermoML archive (doi:10.1021/je049893r).

Settings: Liquid, Vibrating tube method

CCCCOCCOCCO [3,6-dioxa-1-decanol]
mass density [kg/m3]
Settings	100 kPa	1000 kPa	2500 kPa	5000 kPa	7500 kPa	10000 kPa	15000 kPa	20000 kPa	25000 kPa
283.15 K	960.5	961	961.9	963.4	964.9	966.3	969.1	971.8	974.4
293.15 K	952.2	952.7	953.7	955.2	956.7	958.2	961.1	963.9	966.7
303.15 K	943.8	944.3	945.3	946.9	948.5	950.1	953.1	956.1	959
313.15 K	935.3	935.9	936.9	938.6	940.3	941.9	945.1	948.2	951.2
323.15 K	926.6	927.2	928.3	930.1	931.8	933.5	936.9	940.1	943.2
333.15 K	917.8	918.5	919.7	921.6	923.4	925.2	928.7	932	935.2
343.15 K	909.7	910.4	911.6	913.6	915.5	917.4	921.1	924.6	928
353.15 K	900.9	901.7	903	905	907.1	909.1	912.9	916.6	920.1

CCCOCC(C)O (centres undefined) [1-propoxy-2-propanol]
mass density [kg/m3]
Settings	100 kPa	1000 kPa	2500 kPa	5000 kPa	7500 kPa	10000 kPa	15000 kPa	20000 kPa	25000 kPa
283.15 K	895.1	895.7	896.7	898.5	900.1	901.8	905	908.1	911.1
293.15 K	886	886.6	887.7	889.6	891.3	893.1	896.5	899.8	902.9
303.15 K	876.4	877.2	878.4	880.3	882.2	884	887.6	891.1	894.4
313.15 K	866.9	867.6	868.9	871	873	875	878.8	882.4	885.9
323.15 K	857.2	858	859.3	861.4	863.5	865.6	869.6	873.5	877.2
333.15 K	847.1	847.9	849.3	851.7	853.9	856.1	860.3	864.3	868.1
343.15 K	837.5	838.4	840	842.4	844.9	847.2	851.8	856	860.1
353.15 K	827.3	828.3	829.9	832.6	835.2	837.7	842.5	847	851.3
